According to US8633211B2, “Bicyclic organic compounds suitable for the treatment of inflammatory or allergic conditions” (Novartis AG, priority 2007, dated 2014):

target: T1, human S1P2 receptor (Homo sapiens, UniProt O95136); assay: GTPγS binding assay (SPA), antagonism of S1P at S1P2; assay type: biochemical; conditions: GTP-γ-S binding assay, membranes of CHO cells expressing human S1P2, 5 nM S1P
T1 construct: expressed in transfected cells; host or cells: CHO cells (membrane preparation)
Procedure: The ability of compounds to antagonise S1P activity at S1P2 and S1P3 receptors was examined using GTPγS binding assays.
Membranes preparations were generated from CHO cells expressing either the human S1P2 or S1P3 receptors by homogenisation of the cell suspension and centrifugation at 40 000 g for 30 minutes at 4° C. The supernatant was removed, pellet re-suspended in a 10 mM HEPES, 10 mM EDTA buffer and centrifuged as above. The pellet was re-suspended and stored at −80° C. until use.
Scintillation proximity assay (SPA) technology was used for the GTPγS binding assays. Serial dilutions of test compounds were placed in a 96-well optiplate with 5 nM S1P, 1.25 μg membrane, 0.5 mg SPA beads, 0.3 μM GDP and 100 μM sodium orthovanidate, per well. The assay components were incubated for 2 hours to ensure equilibrium was attained. The assay was started by the addition of 300 pM [^35S]GTPγS per well and incubated for 60 minutes prior to centrifugation at 3000 rpm for 3 minutes and reading of a Packard TopCount.
Data were analysed using Activity Base (IDBS, UK) by fitting a four parameter logistic curve to generate IC50 values for each compound.

T1 sequence (O95136 whole entry): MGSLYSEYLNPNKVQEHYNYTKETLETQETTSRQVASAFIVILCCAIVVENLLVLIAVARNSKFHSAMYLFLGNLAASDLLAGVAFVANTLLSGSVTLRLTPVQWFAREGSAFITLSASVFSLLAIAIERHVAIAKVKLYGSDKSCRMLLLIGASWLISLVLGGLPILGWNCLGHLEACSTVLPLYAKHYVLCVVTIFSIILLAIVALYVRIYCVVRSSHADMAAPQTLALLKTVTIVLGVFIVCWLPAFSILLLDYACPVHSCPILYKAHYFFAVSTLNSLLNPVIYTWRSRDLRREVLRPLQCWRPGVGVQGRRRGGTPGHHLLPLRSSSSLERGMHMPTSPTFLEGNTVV

Kb	Structure (SMILES)
4.8 nM	CCOc1ccc(C(=O)Cn2c(=O)n(CCCC(=O)NC3CCCC3)c(=O)c3cc(Cl)ccc32)cc1Cl [Compound 3-4, 4-{6-Chloro-1-[2-(3-chloro-4-ethoxy-phenyl)-2-oxo-ethyl]-2,4-dioxo-1,4-dihydro-2H quinazolin-3-yl}-N-cyclopentyl-butyramide]
0.8 nM	COc1cc(OC)c(NC(=O)Cn2c(=O)n(CC(=O)O)c(=O)c3ccccc32)cc1Cl [Example 1-1, {1-[(5-Chloro-2,4-dimethoxy-phenylcarbamoyl)-methyl]-2,4-dioxo-1,4-dihydro-2H-quinazolin-3-yl}-acetic acid]
1.9 nM	COc1cc(OC)c(NC(=O)Cn2c(=O)n(CC(=O)NCCc3cccnc3)c(=O)c3ccccc32)cc1Cl [Example 1-13, N-(5-Chloro-2,4-dimethoxy-phenyl)-2-{2,4-dioxo-3-[(2-pyridin-3-yl-ethylcarbamoyl)-methyl]-3,4-dihydro-2H-quinazolin-1-yl}-acetamide]
3.6 nM	COc1cc(OC)c(NC(=O)Cn2c(=O)n(-c3ccc(CC(=O)NCCc4ccccc4)cc3)c(=O)c3ccccc32)cc1Cl [Example 2-1, 2-(4-{1-[(5-Chloro-2,4-dimethoxy-phenylcarbamoyl)-methyl]-2,4-dioxo-1,4-dihydro-2H-quinazolin-3-yl}-phenyl)-N-phenethyl-acetamide]

target: T2, human S1P4 (Homo sapiens, UniProt O95977); assay: CHO Gα16 S1P4 intracellular Ca2+ (FLIPR) assay; assay type: cell-based; conditions: relative antagonism of S1P (EC80) induced Ca2+ change, CHO S1P4/Gα16 cells
T2 construct: expressed in transfected cells; host or cells: CHO (Chinese Hamster Ovary) S1P4/Gα16 cell clone
T2 sequence (O95977 1-384): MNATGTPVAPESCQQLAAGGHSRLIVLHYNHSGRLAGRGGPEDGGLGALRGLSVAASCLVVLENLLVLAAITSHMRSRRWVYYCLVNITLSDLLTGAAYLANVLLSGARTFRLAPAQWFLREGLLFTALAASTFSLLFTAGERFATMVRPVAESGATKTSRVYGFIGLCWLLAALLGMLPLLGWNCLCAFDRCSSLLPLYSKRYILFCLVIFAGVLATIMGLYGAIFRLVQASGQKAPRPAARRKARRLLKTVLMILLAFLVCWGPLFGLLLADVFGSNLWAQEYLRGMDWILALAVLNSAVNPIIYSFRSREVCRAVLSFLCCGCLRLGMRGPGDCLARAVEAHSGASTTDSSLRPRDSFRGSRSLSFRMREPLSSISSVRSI
Procedure: The cells are plated in 384 well black plates (10′000 cells per well). […] After washing, the cells are transferred to the FLIPR. […] This allows the determination of the maximal fluorescence (Fmax).

IC50	Structure (SMILES)
15 nM	COc1cc(OC)c(NC(=O)Cn2c(=O)n(CC(=O)NCCc3ccccc3)c(=O)c3ccccc32)cc1Cl [Example 1-35, 2-{1-[(5-Chloro-2,4-dimethoxy-phenylcarbamoyl)-methyl]-2,4-dioxo-1,4-dihydro-2H-quinazolin-3-yl}-N-phenethyl-acetamide]
880 nM	COc1cc(OC)c(NC(=O)Cn2c(=O)n(CC(=O)OC(C)(C)C)c(=O)c3ccccc32)cc1Cl [Example 1-37, {1-[(5-Chloro-2,4-dimethoxy-phenylcarbamoyl)-methyl]-2,4-dioxo-1,4-dihydro-2H-quinazolin-3-yl}-acetic acid tert butyl ester]
